US20120190613A1, “ECHINOCANDIN DERIVATIVES” (priority 2009, published 2012)
≈ marks a conversion by molar mass, not a printed value. Marks after values point to notes of the source that are not given here.

Tests used:
C. albicans R303 = assay: Mouse candidiasis infection model, C. albicans density in kidneys; type: in vivo, female CD-1 mice; details: First run; for Difference from 24-hr control / Mean log10 CFU/kidneys (±SD): kidneys at 24 hr; for Mean log10 CFU/kidneys (±SD): neutropenic mice
Description: The objective of these studies was to evaluate the efficacy of test compounds in the mouse candidiasis infection model.
The strain, C. albicans R303 was transferred from frozen storage onto Sabauroud dextrose agar (SDA) plates and grown for ˜24 hr at 35° C. The inoculum was prepared by transferring colonies from the plate to phosphate buffered saline (PBS) and the concentration adjusted to 10^6 CFU/mL with the aid of a spectrophotometer. The stock was diluted 1:9 to prepare the inoculum. Prior to each run the concentration was verified using the dilution plate count method.
The female CD-1 mice used in this study were obtained from Charles River Laboratories, Portage, MI. The animals were approximately seven-weeks-old at the start of the study and weighed about 16-26 g.
In one approach, mice were made neutropenic with IP injections of cyclophosphamide (150 mg/kg in 10 mL/kg) at 4 and 1 day before inoculation. Each animal was inoculated with the appropriate concentration by injecting 0.1 mL of inoculum into a tail vein. The test compounds were administered IP at 2 hr after infection.
The kidneys were collected from four mice in control group 1 (untreated) at 2 hr after infection, and from the remaining mice in the study at 24 hr after infection. Kidneys were removed aseptically from each mouse and were combined in a sterile tube. An aliquot (2 mL) of sterile PBS was added to each tube and the contents homogenized with a tissue homogenizer (Polytron 3100). Serial dilutions of the tissue homogenates were conducted and 0.1 mL aliquots were spread on SDA plates and the plates incubated at 35° C. overnight. The CFU/kidneys were determined from colony counts. Data were analyzed using one-way ANOVA with the Tukey-Kramer Multiple Comparisons Test (GraphPad InStat version 3.06, GraphPad Software, San Diego, Calif.).
Treatments were administered at 2 hr after infection with 2.1×10^5 CFU/mL of the organism. Data are the means of four mice.
Treatments were administered at 2 hr after infection with 6.4×10^5 CFU/mL of the organism. Data are the means of four mice.
Treatments were administered at 2 hr after infection with 3.8×10^5 CFU/mL of the organism. Data are the means of four mice.
Treatments were administered at 2 hr after infection with 3.8×10^5 CFU/rnL of the organism. Data are the means of four mice.

A. flavus 626 ATCC 64025 = assay: MIC by broth microdilution against A. flavus; type: cell-based; details: 48 hr, growth reduction of 50%
Description: (§1) MIC values (μg/mL) of echinocandin class compounds of the invention against various Candida and Aspergillus species were obtained as follows. Test organisms were obtained from the American Type Culture Collection (Manassas, Va.). The isolates were maintained at −80 ° C., then thawed and sub-cultured one day prior to testing (seven days for Aspergillus strains).
(§2) The mouse serum was heat-inactivated for 30 minutes at 56° C., and filtered through a 0.2 μm low protein binding filter unit prior to use.
(§3) MIC values were determined using broth microdilution. The wells of the daughter plates ultimately contained 180 μL of RPMI-1640 medium with and without mouse serum, 10 μL of drug solution, and 10 μL of yeast or fungal inoculum.
(§4) Prior to susceptibility testing, fungal isolates were removed from frozen storage, thawed at room temperature, and subcultured to Potato Dextrose Agar. The Candida strains were incubated overnight at 35° C. and the Aspergillus strains for 7 days at 25° C. Yeast colonies were inoculated into sterile saline and adjusted to the turbidity of a 0.5 McFarland standard. Inoculums from Aspergillus strains were prepared by washing the surface of an agar slant with 1 mL of sterile saline containing 0.05% of Tween 20. The resulting colloidial suspensions were adjusted to an optical density of 0.09 to 0.11 at λ 625 nm.
(§5) Both the yeast and filamentous fungus suspensions were further diluted 1:100 in RPMI-1640 medium and dispensed into sterile reservoirs and used to inoculate the daughter plates. 10 μL of standardized inoculum was delivered into each well. This yielded a final cell concentration in the daughter plates of approximately 2.5×10^3 colony-forming units/mL. Plates were incubated at 35° C. for approximately 48 hr.
(§6) Following incubation, microplates were viewed from the bottom using a plate viewer.

[1] = tested on: C. parapsilosis 630 ATCC 90018; assay: MIC by broth microdilution against C. parapsilosis; type: cell-based; details: 48 hr
Description: as §1, §2, §3, §4, §5, §6

[2] = tested on: C. albicans 104 ATCC 90028; assay: MIC by broth microdilution against C. albicans; type: cell-based; details: 48 hr
Description: as §1, §2, §3, §4, §5, §6

[3] = 1 mg/kg IP 2 hr after infection
[4] = 5 mg/kg IP 2 hr after infection

| Structure (SMILES) | Difference from 24-hr control (C. albicans R303; [3]) [ns log10 CFU/kidneys] | Mean log10 CFU/kidneys (±SD) (C. albicans R303; [3]) [log10 CFU/kidneys] | Difference from 24-hr control (C. albicans R303; [4]) | Mean log10 CFU/kidneys (±SD) (C. albicans R303; [4]) [log10 CFU/kidneys] | MIC (A. flavus 626 ATCC 64025; 50% mouse serum) [µg/mL] | MIC ([1]; 0% mouse serum) [µg/mL] | MIC ([1]; 50% mouse serum) [µg/mL] | MIC ([2]; 0% mouse serum) [µg/mL] | MIC ([2]; 50% mouse serum) [µg/mL] | MIC (A. flavus 626 ATCC 64025; 0% mouse serum) [µg/mL] | Reduction of yeast density in kidneys (C. albicans R303; 5 mg/kg dose, versus 24-hr infected control) [logs] |
| --- | --- | --- | --- | --- | --- | --- | --- | --- | --- | --- | --- |
| CCC(C)CC(C)CCCCCCCCC(=O)NC1CC(O)C(NCCNC(=O)OCCOC)NC(=O)C2C(O)CCN2C(=O)C(C(O)CCNC(=O)OCCOC)NC(=O)C(C(O)C(O)c2ccc(O)cc2)NC(=O)C2CC(O)CN2C(=O)C(C(C)O)NC1=O (stereo not drawn) [Compound 2] | 0.33 | 5.10 ± 0.28 | 0.37 ns log10 CFU/kidneys | 5.14 ± 0.25 | 4 (≈ 3.08 µM) | 16 (≈ 12.3 µM) | >16 | 4 (≈ 3.08 µM) | >16 | – | – |
| CCC(C)CC(C)CCCCCCCCC(=O)NC1CC(O)C(NCCNC(=O)CCCCCCCOCCOCCOCCOCCOCCOCCOCCOC)NC(=O)C2C(O)CCN2C(=O)C(C(O)CCNC(=O)CCCCCCCOCCOCCOCCOCCOCCOCCOCCOC)NC(=O)C(C(O)C(O)c2ccc(O)cc2)NC(=O)C2CC(O)CN2C(=O)C(C(C)O)NC1=O (stereo not drawn) [Compound 4] | 0.48 | 5.25 ± 0.09 | 0.60 ns log10 CFU/kidneys | 5.37 ± 0.11 | – | >16 | >16 | 8 (≈ 3.96 µM) | >16 | 16 (≈ 7.91 µM) | – |
| CCCCCOc1ccc(-c2ccc(-c3ccc(C(=O)NC4CC(O)C(OCCOCCOCCOCCOC)NC(=O)C5C(O)C(C)CN5C(=O)C(C(C)O)NC(=O)C(C(O)C(O)c5ccc(O)cc5)NC(=O)C5CC(O)CN5C(=O)C(C(C)O)NC4=O)cc3)cc2)cc1 (stereo not drawn) [Compound 5] | 0.00 | 4.77 ± 0.06 | −1.76*** log10 CFU/kidneys | 3.01 ± 0.41 | 0.5 (≈ 0.376 µM) | >16 | >16 | 2 (≈ 1.5 µM) | 2 (≈ 1.5 µM) | 0.125 (≈ 0.094 µM) | 1.76 |
| CCCCCOc1ccc(-c2ccc(-c3ccc(C(=O)NC4CC(O)C(OCCCCCCOCCOCCOCCOCCOCCOCCOCCOC)NC(=O)C5C(O)C(C)CN5C(=O)C(C(C)O)NC(=O)C(C(O)C(O)c5ccc(O)cc5)NC(=O)C5CC(O)CN5C(=O)C(C(C)O)NC4=O)cc3)cc2)cc1 (stereo not drawn) [Compound 7] | 0.50 | 5.27 ± 0.17 | 0.31 ns log10 CFU/kidneys | 5.08 ± 0.19 | 2 (≈ 1.28 µM) | >16 | >16 | 2 (≈ 1.28 µM) | >16 | 0.25 (≈ 0.16 µM) | – |
